{"source": "paper PMC8495876", "about": "(ACS Omega, 2021)", "key": {"[1]": {"target": "human lysosomal α-glucosidase (Homo sapiens, UniProt P10253)", "test": "α-glucosidase inhibitory activity assay", "type": "biochemical", "conditions": "1.43 mM compound; lysosomal α-glucosidase extracts; pH 4.0, 37 °C"}, "α-glucosidase": {"target": "α-glucosidase", "conditions": "previously reported; cited from earlier work"}}}
{"compound": "1-(α-D-Glucopyranosyl)-4-nitro-phenyl-[1,2,3]-triazole [AGT5]", "values": [{"measurement": "α-glucosidase inhibition (%)", "setting": "[1]", "result": 57, "unit": "%"}]}
{"compound": "1-(α-D-Glucopyranosyl)-4-cyano-phenyl-[1,2,3]-triazole [AGT3]", "values": [{"measurement": "α-glucosidase inhibition (%)", "setting": "[1]", "result": 46, "unit": "%"}]}
{"compound": "O=c1cc(-c2ccccc2)oc2cc(O)cc(O)c12", "note": "[chrysin]", "values": [{"measurement": "IC50", "setting": "α-glucosidase", "result": 77, "unit": "µM"}]}
